Source: patent EP0020266A1, “Derivatives of cyano-2-hydroxy-3-benzofurane and benzo(b)thiophene, their preparation and their use in therapy” (ANVAR Agence Nationale de Valorisation de la Recherche, priority 1979, dated 1980)
Several values for one entry are separate records, joined by “and”; a condition that tells them apart may be missing. Equal entries are not always repeated. Where two headings read alike, the source gives them in different places.

Columns and labels:
récepteurs β1-cardiaques = molecular target: T1, récepteurs β1-cardiaques (Cavia porcellus, UniProt H0W3H1); experiment: Antagonism of the effects of isoprenaline on the isolated guinea-pig atrium (method of Giudicelli, Schmitt and Boissier); design: species or system cobaye; details: for Effet inotrope + de l'isoprénaline Concentration active Après produit: isoprenaline concentration giving a 10 mm increase of the trace amplitude; for Effet chronotrope + de l'isoprénaline Concentration active Après produit: isoprenaline concentration giving an increase of 30 beats per min
T1 construct: sur l'oreillette isolée de cobaye; from tissue; host or cells: isolated guinea-pig atrium
Source text: L'activité 8-lytique a été recherchée au niveau des récepteurs β1-cardiaques en déterminant l'antagonisme des effets de l'isoprénaline sur l'oreillette isolée de cobaye, selon la méthode de Giudicelli, Schmitt et Boissier (J. Pharmacol. Exper. Thérapeut., 1969, 168, 116). […]
Afin de ne pas surcharger inutilement les tableaux suivants, seuls les résultats correspondant au composé n° 2 sont indiqués.

[1] = molecular target: T2, récepteurs S2-bronchiques (Cavia porcellus, UniProt Q8K4Z4); experiment: Inhibition of the protection given by isoprenaline against serotonin bronchospasm (Konzett and Roessler, modified by Halpern); format: in vivo, cobaye; details: guinea pig, i.v. 250 µg/kg; for inhibition at 0.25 mg/kg: iv, number in parentheses
T2 construct: a été étudiée chez le cobaye, à raison de cinq animaux par essai; from tissue; host or cells: whole guinea pig (bronchi, in vivo)
Procedure: L'action β2-adrénolytique au niveau bronchique a été étudiée chez le cobaye, à raison de cinq animaux par essai, en recherchant l'inhibition de la protection exercée par l'isoprénaline vis-à-vis du bronchospasme à la sérotonine, selon la méthode de Konzett et Roessler (Arch. Exper. Pathol. Pharmakol., 1940, 195, 71) modifiée par Halpern.
Les composés sont administrés par voie i.v. à la dose de 250 µg/kg.

[2] = dose of product 5.10^-10 mole/cm^3
[3] = dose of product 1.10^-10 mole/cm^3
[4] = dose of product 1.10^-10 mole/cm^3, ratio of active concentrations after and before addition of product

T2 sequence (Q8K4Z4 whole entry): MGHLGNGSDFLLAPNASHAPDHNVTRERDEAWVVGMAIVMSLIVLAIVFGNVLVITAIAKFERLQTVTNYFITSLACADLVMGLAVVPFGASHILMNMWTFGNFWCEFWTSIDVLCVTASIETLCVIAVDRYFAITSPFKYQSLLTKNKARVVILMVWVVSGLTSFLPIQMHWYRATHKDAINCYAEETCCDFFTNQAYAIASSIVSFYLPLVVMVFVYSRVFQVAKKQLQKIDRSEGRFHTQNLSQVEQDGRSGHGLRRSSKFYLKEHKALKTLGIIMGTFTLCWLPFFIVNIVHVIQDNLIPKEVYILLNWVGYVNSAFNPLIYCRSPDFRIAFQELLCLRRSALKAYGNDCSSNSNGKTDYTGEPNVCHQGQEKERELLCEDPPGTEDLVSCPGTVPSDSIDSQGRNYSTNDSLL
T1 sequence (H0W3H1 1-470): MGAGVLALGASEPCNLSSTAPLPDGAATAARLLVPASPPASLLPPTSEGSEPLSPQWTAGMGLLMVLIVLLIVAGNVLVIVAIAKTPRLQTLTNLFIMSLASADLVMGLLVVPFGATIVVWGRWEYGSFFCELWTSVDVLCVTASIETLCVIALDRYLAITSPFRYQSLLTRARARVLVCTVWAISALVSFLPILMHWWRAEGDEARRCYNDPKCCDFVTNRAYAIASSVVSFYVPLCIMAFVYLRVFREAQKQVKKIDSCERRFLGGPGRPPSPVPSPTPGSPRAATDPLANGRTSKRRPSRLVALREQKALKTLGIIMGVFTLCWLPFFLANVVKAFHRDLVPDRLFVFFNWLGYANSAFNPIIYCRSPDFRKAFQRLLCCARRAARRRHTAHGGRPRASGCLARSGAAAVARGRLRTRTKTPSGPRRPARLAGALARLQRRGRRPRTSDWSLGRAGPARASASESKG

Compound	Effet inotrope + de l'isoprénaline Concentration active Après produit (récepteurs β1-cardiaques; [2])	Effet chronotrope + de l'isoprénaline Concentration active Après produit (récepteurs β1-cardiaques; [2])	activité β1-stimulante (récepteurs β1-cardiaques; at low concentrations, compared with propranolol, summary of Table II)	Effet inotrope + de l'isoprénaline Concentration active Après produit (récepteurs β1-cardiaques; [3])	Effet chronotrope + de l'isoprénaline Concentration active Après produit (récepteurs β1-cardiaques; [3])	Effet chronotrope + de l'isoprénaline Index d'activité (récepteurs β1-cardiaques; [4])	Effet inotrope + de l'isoprénaline Index d'activité (récepteurs β1-cardiaques; [4])	antagonisme des effets de l'isoprénaline (effet inotrope + et effet chronotrope +) (récepteurs β1-cardiaques; isolated atrium, single concentration 1.10^-7 g/cm^3, five preparations per product, given as maleate)	Moyenne de l'amplitude Après administration, au bout de 1 min ([1]; 1 min after administration, five animals)	Moyenne de l'amplitude Après administration, au bout de 8 min ([1]; 8 min after administration, five animals)	Moyenne de l'amplitude Après administration, au bout de 16 min ([1]; 16 min after administration, five animals)	Moyenne de l'amplitude Après administration, au bout de 30 min ([1]; 30 min after administration, five animals)	Moyenne de l'amplitude Après administration, au bout de 60 min ([1]; 60 min after administration, five animals)	blocage des récepteurs S2-bronchiques ([1]; compared with propranolol, summary of Table III)	inhibition at 0.25 mg/kg ([1]; 1 min after administration, read-out: pourcentages d'inhibition de l'isoprénaline, 1 min (converted)) [%]	inhibition at 0.25 mg/kg ([1]; 8 min after administration, read-out: pourcentages d'inhibition de l'isoprénaline, 8 min (converted)) [%]	inhibition at 0.25 mg/kg ([1]; 16 min after administration, read-out: pourcentages d'inhibition de l'isoprénaline, 16 min (converted)) [%]
CC(C)NCC(O)COc1cccc2ccccc12 (stereo not drawn) [propranolol, isopropylamino-1 (naphtyl-1 oxy)-3 propanol-2, reference compound]	5,8.10^-8	1,8.10^-7															
CC(C)(C)NCC(O)COc1c(C#N)sc2ccccc12 (stereo not drawn) [compound 2]		1,5.10^-7 and 1,8.10^-7	proche de celle du propranolol	7,6.10^-8	3,8.10^-8	7	6,5	suffisamment efficace	20,4 ± 1,4	3,8 ± 2,4	0,6 ± 0,6	0	0	très fugace	82	15	2
